Data as given in ChEMBL document CHEMBL3421583, “Withanolides with antibacterial activity from Nicandra john-tyleriana” (J Nat Prod, 2015).
Activity calls are given as the source filed them.

Experiments:
Type in all cases: functional, organism-based
Bacillus cereus [1] = assay: Antibacterial activity against Bacillus cereus at 2000 ppm after 24 hrs by bioautographic TLC assay
Bacillus cereus [2] = assay: Antibacterial activity against Bacillus cereus at 2000 ppm after 24 to 48 hrs by disk diffusion method
Bacillus cereus [3] = assay: Bactericidal activity against Bacillus cereus BAC1 at 1000 ppm after 24 hrs
Bacillus cereus [4] = assay: Bacteriostatic activity against Bacillus cereus BAC1 at 750 ppm after 24 hrs

Measured: Activity

C[C@]12CC[C@H]3[C@@H](C[C@H]4O[C@]45CC=CC(=O)[C@]35C)[C@@H]1C[C@@H](O)[C@@H]2[C@@H]1C[C@]2(C)C[C@H]1OC(=O)[C@]2(C)O
active: Bacillus cereus [1] | Bacillus cereus [2]

CC1=C(CO)C(=O)O[C@@H]([C@@H](C)[C@H]2C(=O)C[C@H]3[C@@H]4C[C@H]5O[C@]56CC=CC(=O)[C@]6(C)[C@H]4CC[C@]23C)C1
active: all assays above
